The values that follow come from patent publication US7892756B2, “Human salty taste receptor and methods of modulating salty taste perception” (Monell Chemical Senses Center, priority 2006, dated 2011).

The test system of test [1] is salty taste response in humans. Conditions: in vivo, cited from earlier work.
Test [2] relates to catfish putative taste receptor for L-arginine. As to the kind of experiment: Single channel recording of purified receptor reconstituted in planar lipid bilayers (FIG. 9). Format: biochemical. Conditions: transmembrane potential −100 mV. The text has this: Proteoliposomes containing purified receptor protein from catfish taste epithelium are fused to planar lipid bilayers. Control records (trace shown in part A) were obtained after addition of proteolipisomes to the membrane bathing solution before addition of L-Arg. […] Transmembrane potential was −100 mV. Traces shown in all panels are continuous records of that specific condition.
This example, in part, describes the extraction, purification, and membrane-reconstitution of a taste receptor for L-arginine (L-arg) from catfish. The methods, which are published and described in Grosvenor, W et al. (2004) BMC Neuroscience 5:25, can be readily adapted for reconstitution of ENaC, ENaC subunits, and salty taste receptors in lipid membranes as described below. The catfish has served as a model for taste receptor studies because the receptors are very sensitive to certain amino acids. One such amino acid is L-arg. Like the ENaC, the taste receptor for L-arg in catfish is an ion channel. Parallel approaches are utilized in solubilizing the L-arg and ENaC-type receptors. The receptors differ primarily by origin—the L-arg receptor is purified from catfish taste tissue and the ENaC subunits are synthesized by a heterologous cell culture expression system. […]

Test [3] deals with L-ArgR (native taste receptor for L-arginine). As to the kind of experiment: Taste nerve recordings from the animal, L-ArgR in its native state. Format: in vivo, catfish. The source says:
The properties of the L-ArgR as measured in the bilayer are very similar to those observed through taste nerve recordings from the animal, when the L-ArgR is in its native state.

Test [4] concerns the target T1, ENaC composed of human delta, beta, gamma (Homo sapiens, UniProt P51172, C696Y).
T1 sequence (P51172 1-638 isoform P51172-1 C532Y): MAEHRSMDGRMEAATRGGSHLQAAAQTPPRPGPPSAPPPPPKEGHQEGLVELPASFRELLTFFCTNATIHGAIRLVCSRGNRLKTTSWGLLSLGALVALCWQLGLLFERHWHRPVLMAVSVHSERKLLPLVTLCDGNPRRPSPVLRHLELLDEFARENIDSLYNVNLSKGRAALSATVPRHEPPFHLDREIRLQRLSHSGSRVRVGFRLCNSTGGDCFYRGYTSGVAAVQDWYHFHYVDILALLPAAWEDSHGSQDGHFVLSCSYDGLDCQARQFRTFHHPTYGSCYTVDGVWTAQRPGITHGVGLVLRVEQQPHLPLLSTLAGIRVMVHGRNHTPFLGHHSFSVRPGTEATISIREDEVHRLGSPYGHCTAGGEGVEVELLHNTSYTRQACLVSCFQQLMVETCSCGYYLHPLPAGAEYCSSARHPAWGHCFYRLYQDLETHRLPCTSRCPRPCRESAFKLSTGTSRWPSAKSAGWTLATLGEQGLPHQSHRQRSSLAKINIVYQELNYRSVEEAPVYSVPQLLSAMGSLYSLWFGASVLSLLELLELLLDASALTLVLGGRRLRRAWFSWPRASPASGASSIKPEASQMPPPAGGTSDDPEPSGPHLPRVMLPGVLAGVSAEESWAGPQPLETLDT
T1 sequence (P51168 1-640 partner): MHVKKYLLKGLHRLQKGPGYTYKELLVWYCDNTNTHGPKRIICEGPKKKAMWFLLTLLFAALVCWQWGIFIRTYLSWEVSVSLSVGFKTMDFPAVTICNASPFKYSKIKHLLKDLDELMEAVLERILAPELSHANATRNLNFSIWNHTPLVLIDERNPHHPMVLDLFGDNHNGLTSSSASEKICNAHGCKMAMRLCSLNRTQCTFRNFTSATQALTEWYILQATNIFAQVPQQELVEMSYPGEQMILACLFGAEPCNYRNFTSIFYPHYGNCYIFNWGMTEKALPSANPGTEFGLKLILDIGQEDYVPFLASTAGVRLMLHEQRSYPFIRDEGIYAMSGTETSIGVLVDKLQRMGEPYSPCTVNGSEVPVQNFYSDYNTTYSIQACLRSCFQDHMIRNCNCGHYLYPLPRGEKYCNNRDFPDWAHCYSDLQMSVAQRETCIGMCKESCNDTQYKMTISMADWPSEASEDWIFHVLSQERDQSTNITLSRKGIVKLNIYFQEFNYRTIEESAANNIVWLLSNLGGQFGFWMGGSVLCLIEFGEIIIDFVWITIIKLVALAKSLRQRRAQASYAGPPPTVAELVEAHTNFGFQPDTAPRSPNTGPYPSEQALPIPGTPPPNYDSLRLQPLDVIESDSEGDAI
T1 sequence (P51170 1-649 partner): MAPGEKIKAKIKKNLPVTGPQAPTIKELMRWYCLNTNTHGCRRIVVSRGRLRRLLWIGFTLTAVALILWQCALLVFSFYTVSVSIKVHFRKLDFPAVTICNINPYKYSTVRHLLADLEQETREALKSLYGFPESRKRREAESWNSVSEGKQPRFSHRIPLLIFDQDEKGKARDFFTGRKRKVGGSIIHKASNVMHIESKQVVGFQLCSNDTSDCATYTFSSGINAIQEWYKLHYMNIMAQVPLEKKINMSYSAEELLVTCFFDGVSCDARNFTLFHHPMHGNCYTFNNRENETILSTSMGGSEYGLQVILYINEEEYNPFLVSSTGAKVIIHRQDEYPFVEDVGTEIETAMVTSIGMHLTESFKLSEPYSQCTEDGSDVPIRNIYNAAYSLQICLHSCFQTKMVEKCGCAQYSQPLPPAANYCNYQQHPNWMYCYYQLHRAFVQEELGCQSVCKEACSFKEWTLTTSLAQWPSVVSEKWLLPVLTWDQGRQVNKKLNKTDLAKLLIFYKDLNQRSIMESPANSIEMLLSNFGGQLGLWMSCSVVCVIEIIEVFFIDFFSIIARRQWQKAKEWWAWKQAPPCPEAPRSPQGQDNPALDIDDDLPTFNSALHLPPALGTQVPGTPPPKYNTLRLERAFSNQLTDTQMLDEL
As to the kind of experiment: Amiloride inhibition of ENaC of different composition (FIG. 4). Format: biochemical. Conditions: gamma ENaC compared with human alpha.

Test [5] concerns the target T2, ENaC delta (δ) subunit (Homo sapiens, UniProt P51172).
T2 sequence (P51172 1-802): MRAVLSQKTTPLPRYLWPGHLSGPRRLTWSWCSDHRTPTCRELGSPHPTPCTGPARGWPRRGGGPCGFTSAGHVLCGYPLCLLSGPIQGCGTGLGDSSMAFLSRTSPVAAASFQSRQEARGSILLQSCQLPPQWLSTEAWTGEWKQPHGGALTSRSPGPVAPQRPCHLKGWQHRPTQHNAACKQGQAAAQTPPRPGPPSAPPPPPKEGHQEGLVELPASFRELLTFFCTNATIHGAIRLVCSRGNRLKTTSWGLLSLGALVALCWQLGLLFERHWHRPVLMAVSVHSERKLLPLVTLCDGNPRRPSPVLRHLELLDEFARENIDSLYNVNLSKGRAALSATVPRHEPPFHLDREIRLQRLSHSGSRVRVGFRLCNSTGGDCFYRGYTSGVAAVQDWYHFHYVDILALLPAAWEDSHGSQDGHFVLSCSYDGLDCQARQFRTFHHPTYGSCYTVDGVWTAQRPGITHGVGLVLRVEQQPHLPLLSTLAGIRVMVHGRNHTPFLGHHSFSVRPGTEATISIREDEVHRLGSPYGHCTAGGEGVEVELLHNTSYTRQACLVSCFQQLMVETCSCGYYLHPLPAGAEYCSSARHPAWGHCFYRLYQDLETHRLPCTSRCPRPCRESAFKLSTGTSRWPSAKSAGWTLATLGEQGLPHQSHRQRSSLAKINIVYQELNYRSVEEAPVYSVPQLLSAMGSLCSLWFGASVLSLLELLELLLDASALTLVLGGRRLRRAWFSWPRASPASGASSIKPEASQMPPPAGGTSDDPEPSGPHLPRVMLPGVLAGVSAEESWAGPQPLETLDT
T2 sequence (P51168 1-640 partner): T1 sequence (P51168 1-640 partner)
T2 sequence (P51170 1-649 partner): T1 sequence (P51170 1-649 partner)
Conditions: delta versus alpha subunit; cited from earlier work.

Molecules are shown by their SMILES. Entries after “also recorded” stand apart in the source; their conditions may differ. Read-outs that look alike come from different tables or passages of the source.

On to `N=C(N)N` [guanidine], for which, in test [1], the “effect on salty taste response in humans” value is “salty taste enhancers”.

With `N=C(N)NCCC[C@H](N)C(=O)O` [arginine], the “effect on salty taste response in humans” value in test [1] is listed as “salty taste enhancers”.

`N=C(N)NCCC[C@@H](N)C(=O)O` [D-Arg, D-arginine]: the “effect on salty taste response in humans” value in test [1] is “equally effective”. The “single channel activity after addition to the cis-side following L-Arg” value in test [2] (100 μM, cis-side, after 10 μM L-Arg) is “activity ceased”. Besides, the “effect on the native receptor” value in test [3] was “inhibits the receptor”.

Consider `[H]/N=C(\N/C(=N/[H])NCCCCCCNC(=N)NC(=N)Nc1ccc(Cl)cc1)Nc1ccc(Cl)cc1` [chlorhexidine], for which, in test [1], the “effect on salty taste response in humans” value is listed as “inhibitor of the salty taste response in humans”.

On to `N=C(N)NC(=O)c1nc(Cl)c(N)nc1N` [amiloride], for which the “amiloride sensitivity of delta-containing ENaC relative to alpha, beta, gamma ENaC” value in test [4] is given as “less so than the alpha; also recorded: less sensitive to amiloride”. For the same compound, the “effect on salty taste response in humans” value in test [1] was “inability of amiloride to inhibit sodium-induced salty taste response in humans; also recorded: not sensitive to amiloride”. Also, the “lower affinity for amiloride of delta subunit relative to alpha subunit” value in test [5] is reported as 30 fold.

In the case of `N=C(N)NCCCC[C@H](N)C(=O)O` [homoarginine], in test [1], the “effect on salty taste response in humans” value was “salty taste enhancers”.

`[Cl-].[Na+]` [NaCl, sodium chloride]: the “concentration at which a salty taste is imparted” value in test [1] was “above 50 mM”.

For the compound `N=C(N)NCCC[C@H](N)C(=O)O` [L-Arg, L-arginine], the “effect on salty taste response in humans” value in test [1] (listed as L-arginine) was “equally effective”. In test [2] (10 μM, cis-side of bilayer), the “single channel activity after addition to the cis-side” value was “evoked regular periodic channel activity”. Besides, in test [3], the “sensitivity of the native receptor” value is listed as “in the tenths of uM”.
